Laboratory results: article PMC12442245, “Activity Analysis of the P2X Receptor Antagonist PPADS against Signal Transducer and Activator of Transcription Proteins” (Chembiochem, 2025)
“And” between values parts separate entries of the source, which are not always exact repeats. Identical values can stand only once.

How the values were obtained:
Assay type in all cases: binding
STAT3 = STAT3 (Homo sapiens, UniProt P40763); assay: CETSA, STAT3 in total cell lysates from NK-92 cells; design: the endogenous full‐length proteins (between 748 and 793 amino acids for STAT3/4/5a/5b); endogenous in cells; host or cells: NK-92 cells (DSMZ), whole-cell lysate; settings: NK-92 cell lysates, 100 μM
From the text: STAT3 was again chosen as a specificity control for CETSA analysis, because it had already been used as control in HTRF assays (Figure 2B), and because we had previously developed CETSA for STAT3 in NK‐92 lysates.^[ [11] ^] […] The relatively low thermal shifts obtained even with the high‐affinity control peptides are consistent with the fact that the SH2 domain of STATs only comprises a small proportion (≈100 amino acids) of the endogenous full‐length proteins (between 748 and 793 amino acids for STAT3/4/5a/5b).^[ [25] ^] […] The CETSA experiments were carried out in cell lysates, not in living cells, to account for the putative inability of PPADS and iso‐PPADS to cross the cell membrane owing to their large number of negative charges. […]
(§1) CETSA experiments were performed based on the published protocol.[8] […] The soluble fractions were analyzed by Western blotting.
(§2) Treated lysates were separated by SDS-PAGE on a 10% gel and transferred to nitrocellulose membrane using a TransBlot semi-dry blotting protocol (Bio-Rad Laboratories). Proteins of interest were detected using monoclonal rabbit primary antibodies (Cell Signaling), anti-rabbit-HRP-secondary antibody (Dako) and Pierce ECL Plus chemiluminescence reagent (Thermo Fisher). Bands were visualized using an ImageQuant system (GE Healthcare) and quantitated with ImageJ software (NIH).[9]

[1] = test system: total STAT5 (STAT5a and STAT5b); assay: CETSA, total STAT5 in lysates from K562 cells; settings: K562 cell lysates, 100 μM
Description: (§3) One method by which binding of small molecules to their expected targets in cell lysates can be inferred is the cellular thermal shift assay (CETSA).^[ [23], [24] ^] This assay is based on the observation that reversible protein binding by a small molecule typically stabilizes the bound protein against thermal denaturation. […]
K562 cells (DSMZ) were cultured […]
in RPMI 1640 medium containing 10% FBS, 2 mM L-glutamine and penicillin/streptomycin. For whole-cell lysates, cells were harvested by centrifugation, washed once with ice-cold PBS and resuspended at 3 x 10^6 cells per 100 µl in TBS supplemented with EDTA-free Halt Protease Inhibitor Cocktail (Fisher Scientific). Cells were lysed using three freeze-thaw cycles using liquid nitrogen and a room-temperature water bath. […]
as §1, §2

STAT4 = biological target: T1, STAT4 (Homo sapiens, UniProt Q14765); assay: CETSA, STAT4 in total cell lysates from NK-92 cells; settings: NK-92 cell lysates, 100 μM compound
T1 sequence (Q14765 1-748): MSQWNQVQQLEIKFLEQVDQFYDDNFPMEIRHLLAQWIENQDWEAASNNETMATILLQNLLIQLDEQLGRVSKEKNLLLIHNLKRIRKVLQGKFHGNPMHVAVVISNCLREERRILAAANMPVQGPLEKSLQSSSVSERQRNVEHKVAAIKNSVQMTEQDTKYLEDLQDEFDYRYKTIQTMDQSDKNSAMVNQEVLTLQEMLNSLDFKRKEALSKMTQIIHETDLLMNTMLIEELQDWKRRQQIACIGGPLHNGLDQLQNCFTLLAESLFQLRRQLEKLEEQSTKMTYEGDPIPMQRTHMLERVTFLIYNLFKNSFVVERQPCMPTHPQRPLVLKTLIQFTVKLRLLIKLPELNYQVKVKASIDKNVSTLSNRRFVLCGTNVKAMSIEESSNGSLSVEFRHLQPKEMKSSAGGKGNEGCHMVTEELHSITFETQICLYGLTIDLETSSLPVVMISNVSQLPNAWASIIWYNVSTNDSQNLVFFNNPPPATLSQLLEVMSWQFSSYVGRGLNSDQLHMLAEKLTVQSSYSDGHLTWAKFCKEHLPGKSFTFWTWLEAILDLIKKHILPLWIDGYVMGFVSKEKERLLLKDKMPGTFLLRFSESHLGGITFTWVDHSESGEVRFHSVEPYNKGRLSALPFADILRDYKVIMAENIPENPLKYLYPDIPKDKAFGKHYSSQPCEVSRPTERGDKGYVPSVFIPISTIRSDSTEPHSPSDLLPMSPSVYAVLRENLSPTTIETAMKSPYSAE
Description: as §3
NK-92 cells (DSMZ) were cultured in α-MEM containing 12.5% fetal bovine serum, 12.5% horse serum, 2 mM L-glutamine, penicillin/streptomycin antibiotics and 50 U/ml human recombinant IL-2 (all reagents from Gibco at Thermo Fisher). […]
whole-cell lysates, cells were harvested by centrifugation, washed once with ice-cold PBS and resuspended at 3 x 10^6 cells per 100 µl in TBS supplemented with EDTA-free Halt Protease Inhibitor Cocktail (Fisher Scientific). […]
as §1, §2

Sequence of STAT3 (P40763 whole entry, species assumed, the tested form may be a part): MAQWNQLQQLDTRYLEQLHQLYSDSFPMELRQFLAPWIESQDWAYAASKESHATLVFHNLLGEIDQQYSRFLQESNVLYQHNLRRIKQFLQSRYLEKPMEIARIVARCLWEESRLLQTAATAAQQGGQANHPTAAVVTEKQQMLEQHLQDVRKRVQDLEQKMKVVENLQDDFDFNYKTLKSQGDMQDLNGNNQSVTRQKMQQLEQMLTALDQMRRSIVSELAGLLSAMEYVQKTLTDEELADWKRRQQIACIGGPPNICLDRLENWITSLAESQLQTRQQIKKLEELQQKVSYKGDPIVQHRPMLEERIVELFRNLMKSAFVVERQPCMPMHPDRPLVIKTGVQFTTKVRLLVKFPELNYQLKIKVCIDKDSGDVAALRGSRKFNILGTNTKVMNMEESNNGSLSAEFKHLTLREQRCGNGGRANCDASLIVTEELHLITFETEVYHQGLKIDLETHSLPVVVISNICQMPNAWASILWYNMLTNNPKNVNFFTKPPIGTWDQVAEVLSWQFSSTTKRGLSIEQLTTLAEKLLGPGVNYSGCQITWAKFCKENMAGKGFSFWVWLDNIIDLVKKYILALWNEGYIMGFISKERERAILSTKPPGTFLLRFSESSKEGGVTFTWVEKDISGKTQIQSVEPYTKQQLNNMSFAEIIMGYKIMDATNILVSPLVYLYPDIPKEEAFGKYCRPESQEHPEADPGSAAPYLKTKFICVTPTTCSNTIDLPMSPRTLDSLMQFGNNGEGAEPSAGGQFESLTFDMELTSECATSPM

## Cc1nc(/N=N/c2ccc(S(=O)(=O)O)cc2S(=O)(=O)O)c(COP(=O)(O)O)c(C=O)c1O [PPADS, pyridoxalphosphate‐6‐azophenyl‐2',4'‐disulfonic acid]
STAT3
  increase of the aggregation temperature of STAT3 (ΔT agg): 0.57 °C
STAT3; DMSO control 51.47 °C
  aggregation temperature of STAT3 (T agg): 52.04 °C
[1]
  ΔT agg of total STAT5: 2.7 °C
[1]; DMSO control 49.0 °C
  aggregation temperature of total STAT5 (T agg): 51.7 °C
STAT4
  increase of the aggregation temperature of STAT4 (ΔT agg): 1.1 °C
STAT4; DMSO control 48.9 ± 0.4 °C
  aggregation temperature of STAT4 (T agg): 50.0 ± 0.4 °C and 50.0 °C
